Activity calls are given as the source filed them. The rule behind the calls is not given here. Where only a bound is given, the exact number is not on record here.

These results are taken from ChEMBL document CHEMBL3112505, “Discovery of novel indazole derivatives as dual angiotensin II antagonists and partial PPARγ agonists” (Bioorg Med Chem Lett, 2014).

Series [1] has as its system Rattus norvegicus. Put plainly: Reduction in triglyceride level in Zucker fa/fa rat plasma at 75 mg/kg, po qd for 5 days relative to vehicle-treated control control. Format: functional, organism-based. The arrangement: dose 75 mg/kg.
Series [2] has as its system Rattus norvegicus. Kind of series: Reduction in insulin level in Zucker fa/fa rat plasma at 75 mg/kg, po qd for 5 days relative to vehicle-treated control control. Format: functional, organism-based. The arrangement: dose 75 mg/kg.
Series [3] relates to Rattus norvegicus. Kind of series: Reduction in free fatty acid level in Zucker fa/fa rat plasma at 75 mg/kg, po qd for 5 days relative to vehicle-treated control control. Format: functional, organism-based. The arrangement: dose 75 mg/kg.
For series [4], the system named is Rattus norvegicus. Put plainly: Antihypertensive activity in dosed SHR NCrl rat assessed as decrease in diastolic blood pressure at 10 mg/kg, po administered daily for 12 days relative to vehicle-treated control control. Format: functional, organism-based. The arrangement: dose 10 mg/kg. Particulars: Artery.
Series [5] has as its system Rattus norvegicus. Put plainly: Antihypertensive activity in dosed SHR NCrl rat assessed as decrease in diastolic blood pressure at 10 mg/kg, po administered daily for 12 days relative to baseline control. The arrangement: dose 10 mg/kg. It is filed as functional, organism-based. Particulars: Artery.
Series [6] deals with Rattus norvegicus. Put plainly: Antihypertensive activity in dosed SHR NCrl rat assessed as decrease in systolic blood pressure at 10 mg/kg, po administered daily for 12 days relative to vehicle-treated control control. It is filed as functional, organism-based. Particulars: Artery. The arrangement: dose 10 mg/kg.
Series [7] deals with Rattus norvegicus. Kind of series: Antihypertensive activity in dosed SHR NCrl rat assessed as decrease in systolic blood pressure at 10 mg/kg, po administered daily for 12 days relative to baseline control. Format: functional, organism-based. The arrangement: dose 10 mg/kg. Conditions: Artery.
Series [8] is described as follows: Oral bioavailability in Zucker fa/fa rat at 30 mg/kg. It is filed as ADME, organism-based. Particulars: in vivo.
Series [9] in a line: AUC in Zucker fa/fa rat at 30 mg/kg, po. It is filed as ADME, organism-based. Conditions: plasma. The arrangement: dose 30 mg/kg, route oral.
A short description of series [10]: Clearance in Zucker fa/fa rat at 5.2 mg/kg, iv. Conditions: in vivo. Format: ADME, organism-based. The arrangement: dose 5.2 mg/kg, route intravenous.
Series [11] can be described thus: Volume of distribution at steady state in Zucker fa/fa rat 5.2 mg/kg, iv. Format: ADME, organism-based. The arrangement: dose 5.2 mg/kg, route intravenous. Conditions: in vivo, read-out: Vdss.
Series [12] in a line: Half life in Zucker fa/fa rat at 5.2 mg/kg, iv. Format: ADME, organism-based. The arrangement: dose 5.2 mg/kg, route intravenous. Conditions: in vivo.
The nature of series [13]: AUC in Zucker fa/fa rat at 5.2 mg/kg, iv. Particulars: plasma. Format: ADME, organism-based. The arrangement: dose 5.2 mg/kg, route intravenous.
The target in series [14] is T1, Peroxisome proliferator-activated receptor gamma (Mus musculus) (UniProt P37238).
T1 sequence (whole entry): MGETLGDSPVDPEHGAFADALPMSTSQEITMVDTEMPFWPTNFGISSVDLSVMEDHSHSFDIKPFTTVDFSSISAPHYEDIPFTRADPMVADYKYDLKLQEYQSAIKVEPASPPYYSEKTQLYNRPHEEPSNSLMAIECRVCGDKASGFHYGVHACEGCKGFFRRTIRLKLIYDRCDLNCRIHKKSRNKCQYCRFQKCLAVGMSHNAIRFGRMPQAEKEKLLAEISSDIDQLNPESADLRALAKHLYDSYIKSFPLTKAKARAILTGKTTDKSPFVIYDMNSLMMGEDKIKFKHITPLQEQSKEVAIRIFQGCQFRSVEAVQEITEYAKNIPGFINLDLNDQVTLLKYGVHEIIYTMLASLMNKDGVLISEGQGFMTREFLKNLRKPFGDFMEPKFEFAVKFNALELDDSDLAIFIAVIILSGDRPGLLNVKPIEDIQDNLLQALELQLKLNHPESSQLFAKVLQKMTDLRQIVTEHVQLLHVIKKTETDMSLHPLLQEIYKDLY
Put plainly: Partial agonist activity at mouse PPARgamma expressed in CV-1 cells by reporter gene assay relative to rosiglitazone. It is filed as cell-based. (In general: A reporter such as luciferase makes a cellular process visible.)

Series [15] has as its target T2, Peroxisome proliferator-activated receptor gamma (Mus musculus, UniProt P37238).
T2 sequence (P37238 whole entry): T1 sequence (whole entry)
Put plainly: Partial agonist activity at mouse PPARgamma expressed in CV-1 cells by reporter gene assay. Format: cell-based.

Series [16] deals with T3, Peroxisome proliferator-activated receptor gamma (Homo sapiens) (UniProt P37231).
T3 sequence (whole entry): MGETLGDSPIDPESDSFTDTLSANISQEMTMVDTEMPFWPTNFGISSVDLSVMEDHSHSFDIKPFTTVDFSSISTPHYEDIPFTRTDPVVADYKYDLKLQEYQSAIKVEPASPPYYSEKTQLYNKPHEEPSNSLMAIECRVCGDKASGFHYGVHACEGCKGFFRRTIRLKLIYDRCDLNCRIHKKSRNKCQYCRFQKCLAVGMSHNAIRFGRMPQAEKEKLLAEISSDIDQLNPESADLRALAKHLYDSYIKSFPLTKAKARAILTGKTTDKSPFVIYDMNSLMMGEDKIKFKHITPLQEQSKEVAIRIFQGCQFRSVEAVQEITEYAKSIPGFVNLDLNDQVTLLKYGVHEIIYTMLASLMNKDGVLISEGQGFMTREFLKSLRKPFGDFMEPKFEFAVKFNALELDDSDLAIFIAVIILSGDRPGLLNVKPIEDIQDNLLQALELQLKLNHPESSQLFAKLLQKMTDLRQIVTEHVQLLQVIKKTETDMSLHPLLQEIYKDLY
Kind of series: Partial agonist activity at human PPARgamma expressed in CV-1 cells by reporter gene assay relative to rosiglitazone. It is filed as cell-based.

Series [17] concerns the target T4, Peroxisome proliferator-activated receptor gamma (Homo sapiens, UniProt P37231).
T4 sequence (P37231 whole entry): T3 sequence (whole entry)
Put plainly: Partial agonist activity at human PPARgamma expressed in CV-1 cells by reporter gene assay. Format: cell-based.

Series [18] concerns the target T5, Peroxisome proliferator-activated receptor delta (Mus musculus, UniProt P35396).
T5 sequence (P35396 whole entry): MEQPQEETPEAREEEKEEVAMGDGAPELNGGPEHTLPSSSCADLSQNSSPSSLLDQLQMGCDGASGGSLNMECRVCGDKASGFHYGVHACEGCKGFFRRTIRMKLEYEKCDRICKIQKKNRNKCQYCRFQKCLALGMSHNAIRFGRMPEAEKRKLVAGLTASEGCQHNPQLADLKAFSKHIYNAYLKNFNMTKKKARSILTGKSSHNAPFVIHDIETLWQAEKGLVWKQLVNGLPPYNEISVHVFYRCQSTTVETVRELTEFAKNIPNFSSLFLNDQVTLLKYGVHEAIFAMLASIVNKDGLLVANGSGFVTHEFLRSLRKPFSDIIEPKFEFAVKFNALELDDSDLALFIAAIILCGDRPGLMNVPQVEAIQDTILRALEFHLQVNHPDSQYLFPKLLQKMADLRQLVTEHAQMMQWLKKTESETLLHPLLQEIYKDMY
Put plainly: Agonist activity at mouse PPARdelta expressed in CV-1 cells by reporter gene assay. Format: cell-based.

Series [19] addresses T6, Peroxisome proliferator-activated receptor alpha (Mus musculus, UniProt P23204).
T6 sequence (P23204 whole entry): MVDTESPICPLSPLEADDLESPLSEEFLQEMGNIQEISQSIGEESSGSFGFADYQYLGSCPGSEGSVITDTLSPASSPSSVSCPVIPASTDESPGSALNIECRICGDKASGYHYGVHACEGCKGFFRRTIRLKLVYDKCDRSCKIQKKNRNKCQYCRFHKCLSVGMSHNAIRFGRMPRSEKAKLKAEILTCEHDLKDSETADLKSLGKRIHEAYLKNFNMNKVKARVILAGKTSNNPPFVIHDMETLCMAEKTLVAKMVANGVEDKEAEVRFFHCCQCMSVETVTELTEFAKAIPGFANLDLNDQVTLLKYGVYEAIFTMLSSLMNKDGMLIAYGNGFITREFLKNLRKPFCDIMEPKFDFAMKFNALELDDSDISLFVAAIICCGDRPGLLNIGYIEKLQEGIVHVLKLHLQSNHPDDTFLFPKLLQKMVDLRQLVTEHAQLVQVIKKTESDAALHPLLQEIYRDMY
Kind of series: Agonist activity at mouse PPARalpha expressed in CV-1 cells by reporter gene assay. It is filed as cell-based.

Series [20] has as its target T7, Type-1 angiotensin II receptor (Homo sapiens, UniProt P30556).
T7 sequence (P30556 whole entry): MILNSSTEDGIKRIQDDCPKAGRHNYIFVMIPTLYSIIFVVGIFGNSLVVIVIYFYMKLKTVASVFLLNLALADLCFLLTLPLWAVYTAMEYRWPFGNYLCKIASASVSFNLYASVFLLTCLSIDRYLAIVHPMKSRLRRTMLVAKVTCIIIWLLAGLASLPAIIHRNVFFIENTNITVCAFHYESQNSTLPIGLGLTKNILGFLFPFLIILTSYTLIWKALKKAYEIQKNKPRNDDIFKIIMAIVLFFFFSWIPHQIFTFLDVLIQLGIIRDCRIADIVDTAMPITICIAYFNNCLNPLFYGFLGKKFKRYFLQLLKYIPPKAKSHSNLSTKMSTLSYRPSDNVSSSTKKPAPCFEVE
Kind of series: Antagonist activity at human AT1 receptor expressed in CHO cells measured after overnight incubation by luciferase reporter gene assay. It is filed as cell-based.

Turning to `CCCCn1c(-c2ccc3nn(CCC)c(Cc4ccc(-c5ccccc5-c5nn[nH]n5)cc4)c3c2)nc2ccccc21`, the outcome in series [1], in series [2], in series [3], in [4], in [5] and in [6] was Active. Besides, in series [7], the result was Active. In [8], this compound displayed a bioavailability of 78%. The results for the AUC in series [9] and in [13] were 36300 ng·h/mL and 8010 ng·h/mL, respectively. The same compound showed a clearance in series [10] of 11 mL/min/kg. The Vd in series [11] was determined as 7.8 L/kg. Moreover, in series [12], the half-life is 14 h. Moreover, the values for the max activation in series [14] and in [16] were 18% and 40%, respectively. Further, the EC50 in [15] was 270 nM; in series [17], 250 nM; in series [18], over 10000 nM; in series [19] it was over 10000 nM. The compound also showed a half-inhibitory concentration (IC50) in series [20] of 6 nM.

What is called bioavailability is the share of a dose that reaches the circulation, judged against a reference dose that is usually intravenous. The low end stands for little systemic uptake, the high end for much systemic uptake. One may read the AUC as concentration integrated over time. Broadly, the clearance is a measure of how efficiently the substance is removed, as volume per time. A high value points to a high capacity for elimination. The half-life is the time in which the quantity being followed falls by half. A higher half-life goes with slow decline. For orientation: EC50 means the concentration giving half of the maximal effect. Read a low EC50 as a more potent agent. For orientation: IC50 means the concentration needed to halve the response being measured. A lower IC50 goes with higher potency.
